In patent US6677315B2, “Nucleosides for imaging and treatment applications” (The United States of America as represented by the …, priority 1997, dated 2004):

Columns and labels:
RAJI cells [1] = test: Intracellular nucleotide formation and incorporation into DNA; assay type: cell-based, human; conditions: 10 μM FAU for 24 hours
Experimental: (§1) The human-derived cell lines CEM, MOLT-4, RAJI, U-937, K-562 and the murine-derived L1210 were purchased from the American Type Culture Collection, Rockville, Md. Cells were grown and maintained as a suspension culture in RPMI 1640 medium containing L-glutamine and 10%(v/v) heat-inactivated fetal calf serum (BRL-GIBCO, Rockville, Md.). Penicillin-streptomycin solution (Sigma Chemical Co., St. Louis, Mo.) was added to achieve a final concentration of 100 units/mL. and 100 μg/mL respectively.
(§2) All cell lines, except for L1210, were resuspended in fresh media at 300,000 cells/mL with appropriate amount of radioactive drug. L1210 cells were resuspended at 150,000 cells/mL. After 24 hours at 37° C. in a humidified 5% CO2 atmosphere, cells were harvested for nucleotide measurement and DNA incorporation. Soluble nucleotides were determined for each cell line following exposure to 10 μM FAU. Incorporation of FAU into DNA (as FMAU) was determined over a range of FAU concentrations from 1 μM to 1 mM. As described previously by Klecker, R W, Katki A G, Collins J M. in “Toxicity, Metabolism, DNA Incorporation with Lack of Repair, and Lactate Production for 1-(2′-Fluoro-2′-deoxy-β-D-arabinofuranosyl)-5-iodouracil in U-937 and MOLT-4-cells”, Mol. Pharmacol. 1994; 46;1204-1209; and Speth P A J, Kinsella T J, Chang A E, Klecker R W, Belanger K. Collins J M. in “Incorporation of Iododeoxyuridine into DNA of Hepatic Metastases Versus Normal Human Liver.” Clin. Pharmacol. Ther. 1988; 44:369-75, DNase I and phosphodiesterase I were used to release the bases from DNA. These bases and soluble nucleotides were determined by previously reported HPLC-based methods as noted by Klecker et al. in the previously mentioned reference, “Toxicity, Metabolism, DNA Incorporation with Lack of Repair, and Lactate Production for 1-(2′-fluoro-2′-deoxy-β-D-arabinofuranosyl)-5-iodouracil in U-937 and MOLT-4-cells.” Drug incorporation into cellular DNA was determined using the equation: percent incorporation=100×([drug]/([dThd]+[drug]).

CEM cells [2] = test: as above; assay type: cell-based, human; conditions: 10 μM FAU for 24 hours
Experimental: as §1, §2

MOLT-4 cells [3] = test: as above; assay type: cell-based, human; conditions: MOLT-4, 10 μM FAU for 24 hours
Experimental: as §1, §2

U-937 cells [4] = test: as above; assay type: cell-based, human; conditions: U-937, 10 μM FAU for 24 hours
Experimental: as §1, §2

K-562 cells [5] = test: as above; assay type: cell-based, human; conditions: K-562, 10 μM FAU for 24 hours
Experimental: as §1, §2

L1210 cells [6] = test: Growth inhibition, 72-hr continuous exposure; assay type: cell-based, murine; conditions: L1210, 100 μM, 72 hours continuous incubation
Experimental: as §1
(§3) All cell lines, except for L1210, were suspended in fresh media at 30,000 cells/mL. L1210 cells were suspended at 10,000 cells/mL. Cells, 2 mL, were added to each of the wells of 24-well plates and incubated with either 0 to 1000 μM of FAU or 0 to 300 μM of FMAU. Incubation was conducted at 37° C. in a humidified 5% CO2 atmosphere for 72 hours. Inhibition of cellular growth was assessed by cell counting (Elzone 180, Particle Data, Inc., Elmhurst, IL). Under these conditions, the control doubling times for CEM, MOLT-4, RAJI, U-937, and K-562 cells were 21-22 hours, while the doubling times for L1210 was 8-10 hours.

[7] = system: CEM, MOLT-4, RAJI, U-937, K-562 and L1210 cells; test: Growth inhibition, 72-hr continuous exposure, all cell lines; assay type: cell-based, human; murine
Experimental: as §1, §3

[8] = system: CEM, MOLT-4, RAJI, U-937, K-562 and L1210 cells; test: Intracellular nucleotide formation, all cell lines; assay type: cell-based, human; murine; conditions: incubation with 10 μM FAU for 24 hours
Experimental: as §1
(§4) All cell lines, except for L1210, were resuspended in fresh media at 300,000 cells/mL with appropriate amount of radioactive drug. L1210 cells were resuspended at 150,000 cells/mL. […] Soluble nucleotides were determined for each cell line following exposure to 10 μM FAU. Incorporation of FAU into DNA (as FMAU) was determined over a range of FAU concentrations from 1 μM to 1 mM. […] These bases and soluble nucleotides were determined by previously reported HPLC-based methods as noted by Klecker et al. in the previously mentioned reference, “Toxicity, Metabolism, DNA Incorporation with Lack of Repair, and Lactate Production for 1-(2′-fluoro-2′-deoxy-β-D-arabinofuranosyl)-5-iodouracil in U-937 and MOLT-4-cells.” Drug incorporation into cellular DNA was determined using the equation: percent incorporation=100×([drug]/([dThd]+[drug]).

[9] = FAU plasma concentrations in mice during oral dosing (HPLC); assay type: in vivo; conditions: oral gavage 5 g/kg once per day for 14 days
Experimental: (§5) The toxicity of the compounds of the present invention has been evaluated in an animal model system. FAU was administered by oral gavage to mice at a dose of 5 g/kg once per day for 14 consecutive days. After an additional 14 days of observation following this dosing period, the animals were sacrificed. […] Blood samples were obtained at various times during this treatment, to confirm that the drug was adequately absorbed. HPLC analysis of these samples indicated FAU concentrations in plasma reached maximum levels of 750 micromolar and minimum levels of 50 micromolar.

L1210 cells [10] = test: Intracellular nucleotide formation and incorporation into DNA; assay type: cell-based, murine; conditions: L1210, 10 μM FAU for 24 hours; incorporated as FMAU
Experimental: as §1, §4

RAJI cells [11] = test: Growth inhibition, 72-hr continuous exposure; assay type: cell-based, human; conditions: 72 hours continuous incubation
Experimental: as §1, §3

CEM cells [12] = test: Growth inhibition, 72-hr continuous exposure; assay type: cell-based, human
Experimental: as §1, §3

MOLT-4 cells [13] = test: Growth inhibition, 72-hr continuous exposure; assay type: cell-based, human; conditions: MOLT-4, 100 μM, 72 hours continuous incubation
Experimental: as §1, §3

U-937 cells [14] = test: Growth inhibition, 72-hr continuous exposure; assay type: cell-based, human; conditions: U-937, 100 μM, 72 hours continuous incubation
Experimental: as §1, §3

K-562 cells [15] = test: Growth inhibition, 72-hr continuous exposure; assay type: cell-based, human
Experimental: as §1, §3

mice = test: Toxicity in mice after oral gavage for 14 days; assay type: in vivo; conditions: oral gavage 5 g/kg once per day for 14 days, plus 14 days observation
Experimental: as §5

[16] = molecular target: T1, thymidylate synthase (TS) in U-937 cell extracts (Homo sapiens, UniProt P04818); test: Methylation of FAUMP by thymidylate synthase in cell extracts (tritium release); assay type: biochemical; conditions: 20 μM substrate, tritiated water release
T1 construct: Cell extracts were prepared from each cell line by sonication of intact cells; endogenous in cells; host or cells: U-937 cells (sonicated extract)
T1 sequence (P04818 whole entry): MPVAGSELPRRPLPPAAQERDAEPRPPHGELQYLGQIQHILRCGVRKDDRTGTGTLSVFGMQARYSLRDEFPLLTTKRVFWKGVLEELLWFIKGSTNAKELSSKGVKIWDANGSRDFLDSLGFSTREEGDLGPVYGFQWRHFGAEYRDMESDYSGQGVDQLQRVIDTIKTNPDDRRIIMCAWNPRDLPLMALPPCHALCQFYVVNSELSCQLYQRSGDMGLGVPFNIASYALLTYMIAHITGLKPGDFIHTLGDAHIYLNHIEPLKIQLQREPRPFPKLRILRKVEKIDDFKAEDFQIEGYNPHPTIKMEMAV
Experimental: (§6) When TS adds a methyl group to the 5-position of dUMP to generate dTMP, the proton at that location is released. When [5-^3H]dUMP is the substrate, TS activity in cell extracts can be assessed by monitoring the accumulation rate of tritiated water. Here, [5-^3H]FAUMP was used as the substrate for methylation by TS, and the generation of FMAUMP was determined from the release of tritiated water. Cell extracts were prepared from each cell line by sonication of intact cells. (See: Armstrong R D, Diasio R B. “Improved Measurement of Thymidylate Synthetase Activity by a Modified Tritium-Release Assay” J. Biochem. Biophys. Methods. 1982; 6: 141-7 and Speth P A J, Kinsella T J, Chang A E, Klecker R W, Belanger K. Collins J M. “Incorporation of Iododeoxyuridine into DNA of Hepatic Metastases Versus Normal Human Liver” Clin. Pharmacol. Ther. 1988; 44:369-75.) The methyl donor was provided by 5,10-methylene tetrahydrofolate, which was generated in situ by the addition of formaldehyde to tetrahydrofolate. At various times after the addition of substrate (20 μM of either [5-^3H]dUMP or [5-^3H]FAUMP), the reaction was stopped by addition of HCl. Unreacted substrate was separated from tritiated water by adsorption onto activated charcoal. After centrifugation, an aliquot of the supernatant was counted for tritiated water.

[17] = system: thymidylate synthase (TS) in cell extracts of the other cell lines; test: Methylation of FAUMP by thymidylate synthase in cell extracts (tritium release), other cell lines; assay type: biochemical, human; murine; conditions: 20 μM substrate, tritiated water release
Experimental: as §6

[18] = molecular target: T2, thymidylate synthase in L1210 cells (Mus musculus, UniProt P07607); test: Dehalogenation of IdUrd as probe for thymidylate synthase activity in situ; assay type: cell-based, murine; conditions: L1210, 3 μM [3H]-IdUrd for 24 hours, fraction in DNA
T2 construct: endogenous in cells; host or cells: L1210 cells
T2 sequence (P07607 whole entry): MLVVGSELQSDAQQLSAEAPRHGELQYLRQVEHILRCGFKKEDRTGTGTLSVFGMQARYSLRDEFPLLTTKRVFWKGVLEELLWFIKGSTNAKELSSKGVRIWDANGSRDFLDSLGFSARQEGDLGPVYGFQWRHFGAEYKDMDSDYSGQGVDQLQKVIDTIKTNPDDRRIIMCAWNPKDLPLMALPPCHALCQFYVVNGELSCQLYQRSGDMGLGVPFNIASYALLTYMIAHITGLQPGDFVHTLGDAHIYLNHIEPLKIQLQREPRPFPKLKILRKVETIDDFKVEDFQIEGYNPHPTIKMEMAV
Experimental: (§7) The relative activity of thymidylate synthase was determined after incubation of cells with 3 μM [3H]-IdUrd for 24 hours. DNA was harvested, digested, and chromatographed as described above. Some IdUrd was incorporated into DNA with the iodine remaining intact on the pyrimidine ring. After conversion to IdUMP, part of the IdUrd was dehalogenated by TS to dUMP, which then was converted by TS into dTMP and subsequently incorporated into DNA, and recovered in the DNA digest as [^3H-dThd]. Relative TS activity in situ was defined as the fraction of IdUrd-derived material in DNA which was dehalogenated, i.e., ([^3H]-dThd)/([^3H]-dThd+[^3H]-IdUrd). These methods could also be used with non-radioactive IdUrd, if a stable isotopic label is used, e.g., ^13C, ^15N or ^2H. A mass spectrometric detector would be substituted for the radioactivity detector in the HPLC analysis. Unlabeled IdUrd can't be used since its dehalogenation produced unlabeled dThd, which would be indistinguishable from the endogenous pool of dThd in DNA.

[19] = molecular target: T3, thymidylate synthase in MOLT-4 cells (Homo sapiens, UniProt P04818); test: as above; assay type: cell-based; conditions: MOLT-4, 3 μM [3H]-IdUrd for 24 hours, fraction in DNA
T3 construct: endogenous in cells; host or cells: MOLT-4 cells
T3 sequence (P04818 whole entry): as the sequence (P04818 whole entry) above
Experimental: as §7

[20] = molecular target: T4, thymidylate synthase in RAJI cells (Homo sapiens, UniProt P04818); test: as above; assay type: cell-based; conditions: 3 μM [3H]-IdUrd for 24 hours, fraction in DNA
T4 construct: endogenous in cells; host or cells: RAJI cells
T4 sequence (P04818 whole entry): as above
Experimental: as §7

[21] = molecular target: T5, thymidylate synthase in CEM cells (Homo sapiens, UniProt P04818); test: as above; assay type: cell-based; conditions: 3 μM [3H]-IdUrd for 24 hours, fraction in DNA
T5 construct: endogenous in cells; host or cells: CEM cells
T5 sequence (P04818 whole entry): as above
Experimental: as §7

[22] = molecular target: T6, thymidylate synthase in U-937 cells (Homo sapiens, UniProt P04818); test: as above; assay type: cell-based; conditions: U-937, 3 μM [3H]-IdUrd for 24 hours, fraction in DNA
T6 construct: endogenous in cells; host or cells: U-937 cells
T6 sequence (P04818 whole entry): as above
Experimental: as §7

O=c1ccn([C@@H]2O[C@H](CO)[C@@H](O)[C@@H]2F)c(=O)[nH]1 [FAU, 1-(2′Fluoro-2′deoxy-β-D-arabinofuranosyl)-uracil]
FAUMP formed intracellularly (RAJI cells [1]): 0.95 ± 0.17 nmol/10^6 cells
DNA % incorp (RAJI cells [1]; incorporated as FMAU): 0.09 ± 0.002%
FAUMP formed intracellularly (CEM cells [2]): 0.96 ± 0.24 nmol/10^6 cells
FMAUTP formed intracellularly (CEM cells [2]): 2.30 ± 0.28 nmol/10^6 cells
DNA % incorp (CEM cells [2]; incorporated as FMAU): 0.81 ± 0.10%
FMAUTP formed intracellularly (MOLT-4 cells [3]): 1.92 ± 0.55 nmol/10^6 cells
DNA % incorp (MOLT-4 cells [3]; incorporated as FMAU): 0.19 ± 0.01%
FAUMP formed intracellularly (U-937 cells [4]): 2.70 ± 0.69 nmol/10^6 cells
FMAUTP formed intracellularly (U-937 cells [4]): 1.99 ± 0.08 nmol/10^6 cells
DNA % incorp (U-937 cells [4]; incorporated as FMAU): 0.50 ± 0.02%
FAUMP formed intracellularly (K-562 cells [5]): 11.1 ± 0.9 nmol/10^6 cells
DNA % incorp (K-562 cells [5]; incorporated as FMAU): 0.22 ± 0.002%
growth inhibition (L1210 cells [6]): completely uninhibited
IC50 values relative to FMAU (fold higher) [7]: 10 fold
amounts of FMAUMP or FMAUDP found intracellularly [8]: trace amounts
FAU concentration in plasma, maximum level [9]: 750 µM
FAU concentration in plasma, minimum level [9]: 50 µM
DNA % incorp (L1210 cells [10]): 0.08 ± 0.005%
growth inhibition (RAJI cells [11]; 100 μM): completely uninhibited
growth inhibition (CEM cells [12]; 100 μM, 72 hours continuous incubation): more than 50%
growth inhibition (MOLT-4 cells [13]): somewhat less inhibited
growth inhibition (U-937 cells [14]): more than 50%
growth inhibition (K-562 cells [15]; K-562, 100 μM, 72 hours continuous incubation): somewhat less inhibited
histopathologic examination of murine tissues (toxicity) (mice): no toxicity attributable to the drug treatment

O=c1ccn([C@@H]2O[C@H](COP(=O)(O)O)[C@@H](O)[C@@H]2F)c(=O)[nH]1 [FAUMP, FAU monophosphate]
rate of conversion to FMAUMP as % of the rate of dTMP formation from dUMP [16]: about 1%
rate of conversion to FMAUMP as % of the rate of dTMP formation from dUMP [17]: 0.97-1.5%

Cc1cn([C@H]2O[C@H](CO)[C@@H](O)[C@@H]2F)c(=O)[nH]c1=O [FMAU, 1-(2-deoxy-2-fluoro-alpha-D-arabinofuranosyl)thymine, reference compound]
inhibition at 100 µM (L1210 cells [6]; Mus musculus): > 80%
inhibition at 100 µM (RAJI cells [11]; Homo sapiens): > 80%
effect on cell growth (CEM cells [12]; 0.3 μM (lowest concentration used), 72 hours): substantial effect
inhibition at 100 µM (CEM cells [12]; Homo sapiens, CCRF-CEM, 100 μM, 72 hours continuous incubation): > 80%
inhibition at 100 µM (MOLT-4 cells [13]; Homo sapiens): > 80%
inhibition at 100 µM (U-937 cells [14]; Homo sapiens): > 80%
inhibition at 100 µM (K-562 cells [15]; Homo sapiens, K562, K-562, 100 μM, 72 hours continuous incubation): > 80%
effect on cell growth (K-562 cells [15]; K-562, 0.3 μM (lowest concentration used), 72 hours): substantial effect

O=c1[nH]c(=O)n([C@H]2C[C@H](O)[C@@H](CO)O2)cc1I [IdUrd, Iododeoxyuridine]
relative dehalogenation of IdUrd [18]: ≤ 15%
relative dehalogenation of IdUrd [19]: ≥ 50%
relative dehalogenation of IdUrd [20]: ≤ 15%
relative dehalogenation of IdUrd [21]: ≥ 50%
relative dehalogenation of IdUrd [22]: ≥ 50%
